Measured values published in patent US6054478A, “Antifungal sordaridin derivatives” (Glaxo Wellcome S.A., priority 1994, dated 2000).
Values after ≈ are worked out from the molar mass of the structure shown.

Columns and labels:
C. psuedotropicalis 371E = test: in vitro antifungal MIC, two-fold serial dilution; format: cell-based, Candida pseudotropicalis; conditions: Kluyveromyces marxianus, 24 to 48 hours at 37° C
Description: (§1) The in vitro evaluation of the anti-fungal activity of compounds of the invention was performed on liquid or solid medium by the anti-fungal two-fold serial dilution technique of determining the minimum inhibitory concentration (MIC) of anti-fungal agent that inhibited development of growth after 24 to 48 hours of incubation at 37° C. In practice, a series of agar plates or broth microdilution panels containing two-fold dilutions of anti-fungal agent tested were inoculated with a standard culture of a clinically relevant pathogen, for example, candida albicans. The agar plates or broth microdulution panels were then examined for the presence or absence of growth of the fungus and the appropriate MIC values were noted. Compounds of formula (I) have been tested for anti fungal activity in a standard in vitro screen and the minimum inhibiting concentration (MIC; μg/ml) determined for each compound against a variety of clinically relevant pathogens.

C. glabrata 2375E = test: in vitro antifungal MIC, two-fold serial dilution; format: cell-based; conditions: Nakaseomyces glabratus, 24 to 48 hours at 37° C
Description: as §1

C. albicans 1208E = test: in vitro antifungal MIC, two-fold serial dilution; format: cell-based; conditions: Candida albicans, 24 to 48 hours at 37° C
Description: as §1

C. albicans 2005E = test: in vitro antifungal MIC, two-fold serial dilution; format: cell-based; conditions: Candida albicans, 24 to 48 hours at 37° C
Description: as §1

C. neoformans 2867E = test: in vitro antifungal MIC, two-fold serial dilution; format: cell-based; conditions: Cryptococcus neoformans, 24 to 48 hours at 37° C
Description: as §1

C. albicans 2402E = test: in vitro antifungal MIC, two-fold serial dilution; format: cell-based; conditions: Candida albicans, 24 to 48 hours at 37° C
Description: as §1

C. tropicalis 2808E = test: in vitro antifungal MIC, two-fold serial dilution; format: cell-based; conditions: Candida tropicalis, 24 to 48 hours at 37° C
Description: as §1

C. glabrata 2376E = test: in vitro antifungal MIC, two-fold serial dilution; format: cell-based; conditions: Nakaseomyces glabratus, 24 to 48 hours at 37° C
Description: as §1

C. albicans 4711 = test: in vitro antifungal MIC, two-fold serial dilution; format: cell-based; conditions: Candida albicans, 24 to 48 hours at 37° C
Description: as §1

[1] = adverse effects in treated mice; format: in vivo, male mice; conditions: 50 mg/kg sc
From the text: (§2) The compounds of the invention are essentially non-toxic at therapeutically useful levels.

C. albicans 4711E = test: in vivo protection of mice infected with C. albicans; design: species or system Candida albicans; male mice; conditions: 50 mg/kg sc
From the text: The in vivo evaluation of compounds of formula (I) can be carried out at a series of dose levels by administration (e.g. subcutaneously, orally, intraperitoneally or intravenously) to mice or rats inoculated with a strain of Candida albicans. Untreated animals die within 3 to 9 days and the dose level at which the test compound provides 50% protection against the lethal effect of the infection is noted.
as §2

fungal organisms = conditions: cited from earlier work; for antifungal activity (reported): reported in the literature; for antifungal activity and spectrum of action: when tested against a battery of fungal organisms

Compound	MIC (C. psuedotropicalis 371E) [µg/mL]	MIC (C. glabrata 2375E) [µg/mL]	MIC (C. albicans 1208E) [µg/mL]	MIC (C. albicans 2005E) [µg/mL]	MIC (C. neoformans 2867E) [µg/mL]	MIC (C. albicans 2402E) [µg/mL]	MIC (C. tropicalis 2808E) [µg/mL]	MIC (C. glabrata 2376E) [µg/mL]	MIC (C. albicans 4711) [µg/mL]	adverse effects in the treated mice [1]	protection of male mice infected with C. albicans 4711E (C. albicans 4711E)	antifungal activity (reported) (fungal organisms)	antifungal activity and spectrum of action (fungal organisms)
CCCCCCOC1C(O)C(OCC23CC4C(C)CCC4C4(C=O)CC2C=C(C(C)C)C43C(=O)O)OC(C)C1OC [Example 3, [1R-(1α, 3aβ, 4β4aβ, 7β, 7aα, 8aβ)] 8a-[(6-Deoxy-3-O-hexyl-4-O-methyl-β-D-altropyranosyloxy)methyl]-4-formyl-4,4a,5,6,7,7a,8,8a-octahydro-7-methyl-3-(1-methylethyl)-1,4-methano-s-indacene-3a(1H)-carboxylic acid]	0.25 (≈ 0.433 µM)	> 125	4 (≈ 6.94 µM)	0.25 (≈ 0.433 µM)	31 (≈ 53.7 µM)	2 (≈ 3.47 µM)	1 (≈ 1.73 µM)	> 125					
COC1CC(OCC23CC4C(C)CCC4C4(C=O)CC2C=C(C(C)C)C43C(=O)O)OC(C)C1OC [Example 5, [1R-(1α, 3aβ, 4β, 4aβ, 7β, 7aα, 8aβ)] 8a-[(2,6-Dideoxy-3,4-O-dimethyl-β-D-allopyranosyloxy)methyl]-4-formyl-4,4a,5,6,7,7a,8,8a-octahydro-7-methyl-3-(1-methylethyl)-1,4-methano-s-indacene-3a(1H)-carboxylic acid]	≤ 0.001	1 (≈ 2.04 µM)	≤ 0.001	≤ 0.001	31 (≈ 63.2 µM)	≤ 0.001	0.004 (≈ 0.00815 µM)	1 (≈ 2.04 µM)	≤ 0.001				
COCOC1CC(OCC23CC4C(C)CCC4C4(C=O)CC2C=C(C(C)C)C43C(=O)O)OC(C)C1OC [Example 8, [1R-(1α, 3aβ, 4β, 4aβ, 7β, 7aα, 8aβ)] 8a-[(2,6-Dideoxy-4-O-methyl-3-O-methyloxymethyl-β-D-allopyranosyloxy)methyl]-4-formyl-4,4a,5,6,7,7a,8,8a-octahydro-7-methyl-3-(1-methylethyl)-1,4-methano-s-indacene-3a(1H)-carboxylic acid]	0.12 (≈ 0.23 µM)	16 (≈ 30.7 µM)	0.25 (≈ 0.48 µM)	0.03 (≈ 0.0576 µM)	31 (≈ 59.5 µM)	0.25 (≈ 0.48 µM)	2 (≈ 3.84 µM)	16 (≈ 30.7 µM)	0.12 (≈ 0.23 µM)				
CCCOC1C(C)OC(OCC23CC4C(C)CCC4C4(C=O)CC2C=C(C(C)C)C43C(=O)O)CC1OC [Example 9, [1R-(1α, 3aβ, 4β, 4aβ, 7β, 7aα, 8aβ)] 8a-[(2,6-Dideoxy-3-O-methyl-4-O-propyl-β-D-allopyranosyloxy)methyl]-4-formyl-4,4a,5,6,7,7a,8,8a-octahydro-7-methyl-3-(1-methylethyl)-1,4-methano-s-indacene-3a(1H)-carboxylic acid]	2 (≈ 3.86 µM)	> 125	8 (≈ 15.4 µM)	2 (≈ 3.86 µM)	125 (≈ 241 µM)	8 (≈ 15.4 µM)	16 (≈ 30.8 µM)	> 125	4 (≈ 7.71 µM)				
COC1C(C)OC(OCC23CC4C(C)CCC4C4(C=O)CC2C=C(C(C)C)C43C(=O)O)C(O)C1N=[N+]=[N-] [Example 10, [1R-(1α, 3aβ, 4β, 4aβ, 7β, 7aα, 8aβ)] 8a-[(3-Azido-3,6-dideoxy-4-O-methylβ-D-altropyranosyloxy)methyl]-4-formyl-4,4a,5,6,7,7a,8,8a-octahydro-7-methyl-3-(1-methylethyl)-1,4-methano-s-indacene-3a(1H)-carboxylic acid]		62 (≈ 120 µM)	1 (≈ 1.93 µM)	0.12 (≈ 0.232 µM)	4 (≈ 7.73 µM)	1 (≈ 1.93 µM)		62 (≈ 120 µM)	0.5 (≈ 0.966 µM)	no adverse effects were observed	active in protecting male mice		
COC1C(C)OC(OCC23CC4C(C)CCC4C4(C=O)CC2C=C(C(C)C)C43C(=O)O)C(O)C1SC [Example 11, [1R-(1α, 3aβ, 4β, 4aβ, 7β, 7aα, 8aβ)] 8a-[(3,6-Dideoxy-4-O-methyl-3-methylthio-β-D-altropyranosyloxy)methyl]-4-formyl-4,4a,5,6,7,7a,8,8a-octahydro-7-methyl-3-(1-methylethyl)-1,4-methano-s-indacene-3a(1H)-carboxylic acid]	1 (≈ 1.91 µM)	31 (≈ 59.3 µM)	1 (≈ 1.91 µM)	0.25 (≈ 0.478 µM)	0.05 (≈ 0.0957 µM)	1 (≈ 1.91 µM)	2 (≈ 3.83 µM)	31 (≈ 59.3 µM)	1 (≈ 1.91 µM)				
COC1C(N=[N+]=[N-])CC(OCC23CC4C(C)CCC4C4(C=O)CC2C=C(C(C)C)C43C(=O)O)OC1C [Example 15, [1R-(1α, 3aβ, 4β, 4aβ, 7β, 7aα, 8aβ)] 8a-[(3-Azido-4-O-methyl-2,3,6-trideoxy-β-D-allopyranosyloxy)methyl]-4-formyl-4,4a,5,6,7,7a,8,8a-octahydro-7-methyl-3-(1-methylethyl)-1,4-methano-s-indacene-3a(1)-carboxylic acid]	≤ 0.001	1 (≈ 1.99 µM)	≤ 0.001	≤ 0.001	31 (≈ 61.8 µM)	≤ 0.001	0.004 (≈ 0.00797 µM)	1 (≈ 1.99 µM)	≤ 0.001				
CCCCCCCC(=O)OC1C(O)C(OCC23CC4C(C)CCC4C4(C=O)CC2C=C(C(C)C)C43C(=O)O)OC(C)C1OC [Example 24, [1R-(1α, 3aβ, 4β, 4aβ, 7β, 7aα, 8aβ,)] 8a-[(6-Deoxy-4-O-methyl-3'-O-octanoyl-β-D-altropyranosyloxy)methyl]-4-formyl-4,4a,5,6,7,7a,8,8a-octahydro-7-methyl-3-(1-methylethyl)-1,4-methano-s-indacene-3a(1H)-carboxylic acid]	0.004 (≈ 0.00646 µM)	500 (≈ 808 µM)	0.6 (≈ 0.97 µM)	≤ 0.001	0.25 (≈ 0.404 µM)	0.03 (≈ 0.0485 µM)	0.06 (≈ 0.097 µM)	500 (≈ 808 µM)					
COC1CCC(OCC23CC4C(C)CCC4C4(C=O)CC2C=C(C(C)C)C43C(=O)O)OC1C [Example 39, [1R-(1α, 3aβ, 4aβ, 7β, 7aα, 8aβ)] 8a-[(2,3,6-Trideoxy-4-O-methyl-β-D-allopyranosyloxy)methyl]-4-formyl-4,4a,5,6,7,7a,8,8a-octahydro-7-methyl-3-(1-methylethyl)-1,4-methano-s-indacene-3a(1H)-carboxylic acid]	0.008 (≈ 0.0174 µM)	8 (≈ 17.4 µM)	0.06 (≈ 0.13 µM)	0.004 (≈ 0.00868 µM)	62 (≈ 135 µM)	0.06 (≈ 0.13 µM)	0.25 (≈ 0.543 µM)	8 (≈ 17.4 µM)					
CC(=O)OC1C(C)OC(OCC23CC4C(C)CCC4C4(C=O)CC2C=C(C(C)C)C43C(=O)O)CC1SC(C)=O [Example 42, [1R-(1α, 3aβ, 4β, 4aβ, 7β, 7aα, 8aβ)] 8a-(((2,3,6-Trideoxy-4-O-acetyl-3-acetylthio-b-D-allopyranosyl)oxy)methyl)-4-formyl-4,4a,5,6,7,7a,8,8a-octahydro-7-methyl-3-(1-methylethyl)-1,4-methano-s-indacene-3a(1H)-carboxylic acid]	≤ 0.001	31 (≈ 55.1 µM)	0.06 (≈ 0.107 µM)	≤ 0.001	> 125	0.06 (≈ 0.107 µM)	1 (≈ 1.78 µM)	31 (≈ 55.1 µM)	0.015 (≈ 0.0267 µM)				
COC1C(C)OC(OCC23CC4C(C)CCC4C4(C=O)CC2C=C(C(C)C)C43C(=O)O)C(O)C1O (stereo not shown) [sordarin]												fungistatic activity	only moderately active and have limited spectra of action
CC=CC=CC(=O)OC1C(O)C(OCC23CC4C(C)CCC4C4(C=O)CC2C=C(C(C)C)C43C(=O)O)OC(C)C1OC (stereo not shown) [zofimarin]												antifungal activity	only moderately active and have limited spectra of action
